Where “and” joins values, the source holds several entries; their conditions need not be identical. Equal entries are not always repeated. Toxic doses and inconclusive results are not listed. Rule as the data show it: active = T/C of 150% or more; inactive = T/C below 125%.
Tested on: L1210 leukemia ip in BDF1 mice, survival T/C
Assay: NCI In Vivo Anticancer Drug Screen. Data for tumor model L1210 Leukemia (intraperitoneal) in B6D2F1 (BDF1) mice
Settings: endpoint: mean survival time, higher = longer survival
In short: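 Transplanted-tumor mice were given test agent; controls received vehicle only. Survival readings from the two groups were divided (treated over control).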

[1] = dose: 100.0 mg/kg/injection, schedule: Q01DX009 (ip), vehicle: saline
[2] = dose: 100.0 mg/kg/injection, schedule: Q04DX003 (ip), vehicle: saline
[3] = dose: 200.0 mg/kg/injection, schedule: Q01DX009 (ip), vehicle: saline
[4] = dose: 200.0 mg/kg/injection, schedule: Q04DX003 (ip), vehicle: saline
[5] = dose: 50.0 mg/kg/injection, schedule: Q04DX002 (ip), vehicle: Klucel (hydroxypropylcellulose) (HPC)
[6] = dose: 100.0 mg/kg/injection, schedule: Q04DX002 (ip), vehicle: Klucel (hydroxypropylcellulose) (HPC)
[7] = dose: 25.0 mg/kg/injection, schedule: Q04DX002 (ip), vehicle: saline
[8] = dose: 50.0 mg/kg/injection, schedule: Q04DX002 (ip), vehicle: saline
[9] = dose: 100.0 mg/kg/injection, schedule: Q04DX002 (ip), vehicle: saline
[10] = dose: 100.0 mg/kg/injection, schedule: Q01DX001 (ip), vehicle: saline
[11] = dose: 200.0 mg/kg/injection, schedule: Q01DX001 (ip), vehicle: saline
[12] = dose: 400.0 mg/kg/injection, schedule: Q01DX001 (ip), vehicle: saline
[13] = dose: 100.0 mg/kg/injection, schedule: Q01DX009 (ip), vehicle: Klucel (hydroxypropylcellulose) (HPC)
[14] = dose: 200.0 mg/kg/injection, schedule: Q01DX009 (ip), vehicle: Klucel (hydroxypropylcellulose) (HPC)
[15] = dose: 400.0 mg/kg/injection, schedule: Q01DX009 (ip), vehicle: Klucel (hydroxypropylcellulose) (HPC)
[16] = dose: 50.0 mg/kg/injection, schedule: Q01DX009 (ip), vehicle: saline with Tween-80
[17] = dose: 100.0 mg/kg/injection, schedule: Q01DX009 (ip), vehicle: saline with Tween-80
[18] = dose: 100.0 mg/kg/injection, schedule: Q04DX002 (ip), vehicle: saline with Tween-80
[19] = dose: 200.0 mg/kg/injection, schedule: Q01DX009 (ip), vehicle: saline with Tween-80
[20] = dose: 25.0 mg/kg/injection, schedule: Q01DX009 (ip), vehicle: saline with Tween-80
[21] = dose: 100.0 mg/kg/injection, schedule: Q04DX003 (ip), vehicle: Klucel (hydroxypropylcellulose) (HPC)
[22] = dose: 200.0 mg/kg/injection, schedule: Q04DX003 (ip), vehicle: Klucel (hydroxypropylcellulose) (HPC)
[23] = dose: 400.0 mg/kg/injection, schedule: Q04DX003 (ip), vehicle: Klucel (hydroxypropylcellulose) (HPC)
[24] = dose: 50.0 mg/kg/injection, schedule: Q04DX003 (ip), vehicle: saline with Tween-80
[25] = dose: 100.0 mg/kg/injection, schedule: Q04DX003 (ip), vehicle: saline with Tween-80

Measured: T/C

c1ccc2c(c1)CC(=[N+]1CCCCC1)Cc1ccccc1-2
inactive: [1] 92 % of control | [2] 103 % of control | [3] 92 % of control | [4] 89 % of control | dose: 400.0 mg/kg/injection, schedule: Q04DX003 (ip), vehicle: saline 87 % of control

O=C(CCCC(=O)N/N=C/C1CC=CCC1)N/N=C\C1CC=CCC1 (stereo not given)
inactive: dose: 50.0 mg/kg/injection, schedule: Q01DX001 (ip), vehicle: other 90 % of control | dose: 100.0 mg/kg/injection, schedule: Q01DX001 (ip), vehicle: other 90 % of control | dose: 400.0 mg/kg/injection, schedule: Q01DX001 (ip), vehicle: other 98 % of control

O=C1C(O)=C(c2ccc(O)cc2)C(=O)C(O)=C1c1ccc(O)cc1
inactive: dose: 25.0 mg/kg/injection, schedule: Q04DX002 (ip), vehicle: Klucel (hydroxypropylcellulose) (HPC) 88 % of control | dose: 25.0 mg/kg/injection, schedule: Q04DX002 (oral), vehicle: saline with Tween-80 105 % of control | [5] 95 % of control | dose: 50.0 mg/kg/injection, schedule: Q04DX002 (oral), vehicle: saline with Tween-80 98 % of control | [6] 103 % of control | dose: 100.0 mg/kg/injection, schedule: Q04DX002 (oral), vehicle: saline with Tween-80 112 % of control

CC(=O)c1ccc(N=C=O)cc1
inactive: dose: 400.0 mg/kg/injection, schedule: Q01DX001 (ip), vehicle: saline with Tween-80 95 % of control

O=C(CI)NCc1cn(C2CC(O)C(CO)O2)c(=O)[nH]c1=O (stereo not given)
inactive: dose: 25.0 mg/kg/injection, schedule: Q01DX005 (ip), vehicle: water 105 % of control | dose: 50.0 mg/kg/injection, schedule: Q01DX005 (ip), vehicle: water 116 % of control | dose: 100.0 mg/kg/injection, schedule: Q01DX005 (ip), vehicle: water 116 % of control

CNCC1OC(n2cc(C)c(=O)[nH]c2=O)CC1O (stereo not given)
inactive: [7] 108 % of control | [8] 115 % of control | [9] 97 % of control

COc1ccc(OCCC(=O)O)cc1
inactive: [10] 90 % of control | [11] 93 % of control

CCc1ccc2[nH]c(C(=O)O)cc2c1
inactive: [10] 92 % of control | [12] 90 % of control

CC(=O)OCC1OC(N2c3ccccc3CC2C)C(OC(C)=O)C(OC(C)=O)C1OC(C)=O (stereo not given)
inactive: dose: 25.0 mg/kg/injection, schedule: Q01DX001 (ip), vehicle: saline 94 % of control | dose: 50.0 mg/kg/injection, schedule: Q01DX001 (ip), vehicle: saline 94 % of control | [10] 94 % of control

C=CC[As](C)(=O)O
inactive: [1] 109 % of control | [3] 94 % of control

Cc1cc(C)c(S(N)(=O)=O)c(C)c1
inactive: [5] 94 % of control | [6] 107 % of control | dose: 200.0 mg/kg/injection, schedule: Q04DX002 (ip), vehicle: Klucel (hydroxypropylcellulose) (HPC) 94 % of control

Cc1cc(NS(=O)(=O)c2ccc(N=Nc3cc(N=Nc4ccccc4)c(N)nc3N)cc2)nc(C)n1
inactive: [10] 100 % of control | [11] 100 % of control | [12] 105 % of control

CCOc1ccccc1NC(=O)NCC(=O)N/N=C/c1ccc(O)c(OC)c1
inactive: [13] 95 % of control | [14] 90 % of control | [15] 91 % of control

C=CCOC(=O)COCC(=O)OCC=C
inactive: [2] 97 % of control | [4] 88 % of control

ClC1=CC2CCC1C21CC1 (stereo not given)
inactive: [16] 105 % of control | dose: 100.0 mg/kg/injection, schedule: Q01DX005 (ip), vehicle: saline with Tween-80 92 % of control | [17] 94 % of control | [18] 87 % of control | dose: 200.0 mg/kg/injection, schedule: Q01DX005 (ip), vehicle: saline with Tween-80 96 % of control | [19] 97 % of control | dose: 200.0 mg/kg/injection, schedule: Q04DX002 (ip), vehicle: saline with Tween-80 100 % of control | dose: 400.0 mg/kg/injection, schedule: Q04DX002 (ip), vehicle: saline with Tween-80 103 % of control

CS(=O)(=O)c1nc(Cl)nc(C(Cl)(Cl)Cl)c1Cl
inactive: [20] 101 % of control | [16] 95 % of control

Cc1c(C)c(C)c(CSC(N)=Nc2ccccc2)c(C)c1C
inactive: [16] 98 % of control | [17] 102 % of control | [19] 102 % of control

COc1ccc(COC(=O)Oc2ccc(OC)cc2)cc1
inactive: [21] 102 % of control | [22] 98 % of control | [23] 112 % of control

NC1C2CC3CC1CC(C2)O3 (stereo not given)
inactive: [7] 103 % of control | [8] 106 % of control | [9] 106 % of control

O=P(Oc1ccccc1)(OP(=O)(Oc1ccccc1)N(CCCl)CCCl)N(CCCl)CCCl (stereo not given)
inactive: dose: 12.5 mg/kg/injection, schedule: Q01DX Z (ip), vehicle: methylcellulose (MC) 97 % of control | dose: 25.0 mg/kg/injection, schedule: Q01DX Z (ip), vehicle: methylcellulose (MC) 102 % of control | dose: 50.0 mg/kg/injection, schedule: Q01DX Z (ip), vehicle: methylcellulose (MC) 96 % of control | dose: 100.0 mg/kg/injection, schedule: Q01DX Z (ip), vehicle: methylcellulose (MC) 96 % of control | dose: 250.0 mg/kg/injection, schedule: Q01DX Z (ip), vehicle: other 98 % of control | dose: 500.0 mg/kg/injection, schedule: Q01DX Z (ip), vehicle: other 104 % of control

C=CC12CN(C)C3C4COC(CC41)C1(C(=O)Nc4ccccc41)C32 (stereo not given)
inactive: dose: 75.0 mg/kg/injection, schedule: Q01DX001 (ip), vehicle: other 102 % of control

Cc1c2cnccc2c(C)c2c1c1ccccc1n2CCNCc1ccccc1
inactive: [24] 87 % of control | [25] 94 % of control | dose: 200.0 mg/kg/injection, schedule: Q04DX003 (ip), vehicle: saline with Tween-80 103 % of control

O=C1c2ccccc2S(=O)(=O)N1CCN1C(=O)c2ccccc2S1(=O)=O
inactive: [21] 94 % of control | [22] 93 % of control | [23] 94 % of control

C=C(C)C1CCC2(C=O)CCC3(C)C(CCC4C5(C)CCC(OC6CCCCO6)C(C)(C)C5CCC43C)C12 (stereo not given)
inactive: dose: 25.0 mg/kg/injection, schedule: Q04DX002 (ip), vehicle: saline with Tween-80 90 % of control | [18] 90 % of control

COc1ccc(C(=O)C(Br)C(Br)C(=O)O)cc1 (stereo not given)
inactive: dose: 12.5 mg/kg/injection, schedule: Q01DX009 (ip), vehicle: saline with Tween-80 93 % of control | [20] 102 % of control | dose: 25.0 mg/kg/injection, schedule: Q01DX009 (ip), vehicle: saline 102 % of control | dose: 25.0 mg/kg/injection, schedule: Q04DX003 (ip), vehicle: saline with Tween-80 98 % of control and 103 % of control | [16] 104 % of control | dose: 50.0 mg/kg/injection, schedule: Q01DX009 (ip), vehicle: saline 100 % of control and 94 % of control | [24] 100 % of control and 101 % of control and 103 % of control | dose: 66.0 mg/kg/injection, schedule: Q04DX003 (ip), vehicle: saline 102 % of control | [17] 86 % of control | [1] 97 % of control and 89 % of control | [25] 100 % of control and 104 % of control and 107 % of control | [2] 106 % of control and 122 % of control and 92 % of control | dose: 150.0 mg/kg/injection, schedule: Q04DX003 (ip), vehicle: saline 111 % of control | [4] 108 % of control

COc1cc2ccc(C(C)NCC(=O)O)cc2cc1OC (stereo not given)
inactive: [13] 100 % of control | [21] 93 % of control | [14] 100 % of control | [22] 90 % of control | [15] 94 % of control | [23] 90 % of control

From PubChem BioAssay AID248 (DTP/NCI, 2004)
